Consider one molecule from paper PMC9848269, “Investigation of novel alkyl/benzyl (4-sulphamoylphenyl)carbamimidothioates as carbonic anhydrase inhibitors” (Journal of Enzyme Inhibition and Medicinal Chemistry, 2023).

What all share (set-up): stopped-flow CO2 hydration assay, phenol red absorbance at 557 nm, Ki via Cheng-Prusoff
Assay [1] concerns the target T1, StCA2 (Salmonella enterica, UniProt O30898).
T1 construct: gene mig-5; recombinant, obtained in-house; beta-class CA
T1 sequence (O30898 41-246): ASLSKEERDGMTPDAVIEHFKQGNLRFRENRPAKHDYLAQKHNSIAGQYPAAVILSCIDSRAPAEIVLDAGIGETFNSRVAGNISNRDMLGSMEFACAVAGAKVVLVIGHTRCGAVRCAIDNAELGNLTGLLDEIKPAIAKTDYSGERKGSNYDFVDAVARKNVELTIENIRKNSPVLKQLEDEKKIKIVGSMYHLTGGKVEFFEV
The following applies: inhibitor. The protocol:
An applied photophysics stopped-flow instrument has been used for assaying the CA-catalysed CO2 hydration activity. Phenol red (at a concentration of 0.2 mM) was used as indicator, working at the absorbance maximum of 557 nm, with 20 mM Hepes (pH 7.5) as buffer for α-CAs or 20 mM TRIS (pH 8.4) as buffer for β-CAs, and 20 mM Na2SO4 (for maintaining constant the ionic strength), following the initial rates of the CA-catalysed CO2 hydration reaction for a period of 10 – 100 s. The CO2 concentrations ranged from 1.7 to 17 mM for the determination of the kinetic parameters and inhibition constants. For each inhibitor, at least six traces of the initial 5 – 10% of the reaction have been used for determining the initial velocity. The uncatalysed rates were determined in the same manner and subtracted from the total observed rates. Stock solutions of inhibitor (0.1 mM) were prepared in distilled – deionised water, and dilutions up to 0.01 nM were done thereafter with the assay buffer. Inhibitor and enzyme solutions were preincubated together for 6 h at room temperature prior to assay in order to allow for the formation of the E – I complex. The inhibition constants were obtained by nonlinear least-squares methods using PRISM 3 and the Cheng–Prusoff equation, as reported earlier[12]^,[13]^,[20]^,[21], and represent the mean from at least three different determinations. […]

In assay [2] the target is T2, hCA VII (Homo sapiens, UniProt P43166).
T2 construct: gene CA7; recombinant, obtained in-house; cytosolic
Briefly: biochemical. The protocol:
(§1) An applied photophysics stopped-flow instrument has been used for assaying the CA-catalysed CO2 hydration activity. Phenol red (at a concentration of 0.2 mM) was used as indicator, working at the absorbance maximum of 557 nm, with 20 mM Hepes (pH 7.5) as buffer for α-CAs or 20 mM TRIS (pH 8.4) as buffer for β-CAs, and 20 mM Na2SO4 (for maintaining constant the ionic strength), following the initial rates of the CA-catalysed CO2 hydration reaction for a period of 10 – 100 s. The CO2 concentrations ranged from 1.7 to 17 mM for the determination of the kinetic parameters and inhibition constants. For each inhibitor, at least six traces of the initial 5 – 10% of the reaction have been used for determining the initial velocity. The uncatalysed rates were determined in the same manner and subtracted from the total observed rates. Stock solutions of inhibitor (0.1 mM) were prepared in distilled – deionised water, and dilutions up to 0.01 nM were done thereafter with the assay buffer. Inhibitor and enzyme solutions were preincubated together for 6 h at room temperature prior to assay in order to allow for the formation of the E – I complex. The inhibition constants were obtained by nonlinear least-squares methods using PRISM 3 and the Cheng–Prusoff equation, as reported earlier[12]^,[13]^,[20]^,[21], and represent the mean from at least three different determinations. All CA isoforms were recombinant ones obtained in-house as reported earlier[22]^,[23] and their concentrations in the assay system ranged between 7.6–12.5 nM. Sulphonamides 8a–o incorporating carbamimidothioate moieties have been tested as inhibitors of four human (h) CA isoforms, the cytosolic hCA I, II, VII and XIII, as well as the bacterial β-CAs from Mammaliicoccus (Staphylococcus) sciuri[14] and Salmonella enterica (serovar Typhimurium), StCA1 and StCA2[15]. It should be mentioned that the first bacterial enzyme, MscCA, was originally reported by us as Staphylococcus aureus β-CA, SauCA based on a genomic sequence annotated in the data bases in 2017[14]. […] In 2020, the species was renamed as belonging to a new genus, as Mammaliicoccus sciuri. The hCAs included in the study were the ubiquitous hCA I and II, as well as hCA VII and XIII which are found in fewer tissues compared to hCA I and II, and are involved in several pathologies in the CNS (hCA VII) or reproductive tract (hCA XIII)[17]^,[18].

Assay [3] addresses T3, hCA I (Homo sapiens, UniProt P00915).
T3 construct: gene CA1; recombinant, obtained in-house; cytosolic
The experiment in a line: biochemical. The protocol:
as §1

The target in assay [4] is T4, hCA II (Homo sapiens, UniProt P00918).
T4 construct: gene CA2; recombinant, obtained in-house; cytosolic
Briefly: biochemical. As to the method: as §1

Assay [5] deals with T5, hCA XIII (Homo sapiens, UniProt Q8N1Q1).
T5 construct: gene CA13; recombinant, obtained in-house; cytosolic
Briefly: biochemical. The protocol: as §1

T3 sequence (P00915 2-261): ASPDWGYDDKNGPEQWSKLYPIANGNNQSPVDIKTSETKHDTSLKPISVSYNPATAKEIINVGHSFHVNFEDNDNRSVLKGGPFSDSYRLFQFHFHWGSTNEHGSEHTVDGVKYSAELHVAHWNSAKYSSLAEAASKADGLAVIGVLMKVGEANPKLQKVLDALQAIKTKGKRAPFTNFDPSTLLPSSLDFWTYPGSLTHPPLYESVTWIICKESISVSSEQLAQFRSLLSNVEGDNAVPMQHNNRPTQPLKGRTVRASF
T2 sequence (P43166 whole entry): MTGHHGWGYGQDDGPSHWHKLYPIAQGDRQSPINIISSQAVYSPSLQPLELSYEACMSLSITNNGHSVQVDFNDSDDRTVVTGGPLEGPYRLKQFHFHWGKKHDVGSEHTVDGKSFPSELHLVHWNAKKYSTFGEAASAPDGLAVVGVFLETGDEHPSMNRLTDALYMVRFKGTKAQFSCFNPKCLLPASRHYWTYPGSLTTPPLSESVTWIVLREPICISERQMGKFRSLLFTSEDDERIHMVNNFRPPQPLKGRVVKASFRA
T5 sequence (Q8N1Q1 whole entry): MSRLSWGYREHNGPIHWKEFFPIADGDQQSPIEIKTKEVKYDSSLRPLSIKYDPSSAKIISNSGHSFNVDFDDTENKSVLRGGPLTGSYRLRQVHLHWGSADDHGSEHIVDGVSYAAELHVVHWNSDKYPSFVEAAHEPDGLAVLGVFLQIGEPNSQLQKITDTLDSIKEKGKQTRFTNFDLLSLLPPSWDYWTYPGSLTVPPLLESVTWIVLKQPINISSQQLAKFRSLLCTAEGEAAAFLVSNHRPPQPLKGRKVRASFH

For orientation: Ki means the dissociation constant of the complex between target and ligand, obtained from inhibition or displacement. Turning to `CCCCCCSC(=N)Nc1ccc(S(N)(=O)=O)cc1` [8c, Hexyl (4-sulphamoylphenyl)carbamimidothioate], the Ki in assay [1] is 898 nM; in assay [2], 2.3 nM; in assay [3] it was 78.8 nM; in assay [4], 2.5 nM; in assay [5], 92.2 nM.
